One may read the NOAEL as the highest tested level that showed no adverse finding. One may read the LOAEL as the lowest dose or exposure tested at which an adverse effect was seen.

≈ marks a conversion by molar mass, not a printed value.

Experimental findings from EPA's ToxValDB 9.5 (doi:10.2903/j.efsa.2006.75r) are described below.

Series [1] relates to Aphidius rhopalosiphi. Description: LR50; higher = less toxic. The conditions noted are these: acute; duration: 48 hours; mortality.
In another series the test system is Daphnia magna. Conditions: chronic/long-term; duration: 21 days; reproduction.
Series [2] deals with Aphidius rhopalosiphi. The conditions noted are these: chronic/long-term; reproduction.
For series [3] the following is noted: chronic.
The subject of a further series is Tagia sp. The conditions noted are these: acute; mortality.
In another series the test system is Canidae. Conditions: short-term; duration: 28 days; oral; Dog Other; clinical chemistry.
A further series has as its system Lepomis macrochirus. Conditions: acute; duration: 96 hours; mortality.
A further series deals with Apis mellifera. Conditions: acute, mortality.
The test system of another series is Rattus norvegicus. Conditions: for NOAEL: clinical chemistry.
The subject of the next series is Mus musculus. The conditions noted are these: oral.
Another series has as its system Oncorhynchus mykiss. Conditions: chronic/long-term; duration: 96 days; growth.
The next series has as its system Coturnix japonica. Conditions: acute; oral; diet; mortality.

Regarding `COP(=S)(OC)SCN1C(=O)c2ccccc2C1=O` [Phosmet], the LR50 with Aphidius rhopalosiphi [1] turned out to be 1.95 g/ha. Besides, the NOEC in the series on Daphnia magna was 0.00078 mg/L; in series [3], 0.001 mg/L; in the series with Colinus virginianus (reproduction developmental) it was 7.5 mg/kg-day; in the series with Oncorhynchus mykiss, 0.0032 mg/L. The same compound came in with an LEL in the series on Aphidius rhopalosiphi [2] of 1.41 g/ha. For the same compound, the LC50 with Tagia sp. worked out at 104 mg/kg; with Lepomis macrochirus, 0.0197 µg/mL (≈ 0.0621 µM); in the series on Coturnix japonica, 406 mg/kg-day. For the same compound, the NOAEL was found to be 2 mg/kg-day in the series on Canidae; 4.5 mg/kg-day in the series on Rattus norvegicus (acute); 1.5 mg/kg-day in the series with Rattus norvegicus (subchronic, duration: 13 weeks); 2 mg/kg-day in the series with Rattus norvegicus (subchronic, duration: 90 days, oral); 2 mg/kg-day with Mus musculus (short-term, duration: 28 days, clinical chemistry). In addition, the LD50 stood at 0.22 µg/piece with Apis mellifera (duration: 48 hours, dermal); 0.37 µg/piece in the series with Apis mellifera (oral, unspecified); 57 mg/kg with Colinus virginianus (acute, oral, mortality); 113 mg/kg in the series on Rattus norvegicus (acute, oral, mortality). Besides, in the series with Rattus norvegicus (reproduction developmental), the NOAEC amounted to 1.5 mg/kg-day. Besides, the lowest observed adverse effect level (LOAEL) in the series on Mus musculus (chronic, duration: 2 years, diet, neurology) is 1 mg/kg-day.
